Consider one molecule from patent publication US20090221530A1, “Relaxase Modulators and Methods of Using Same” (priority 2005, published 2009).

Converted amounts (≈) assume the structure as drawn. Like-named read-outs stand apart in the source and are kept apart here.

Assay type in all cases: cell-based, E. coli
In assay [1] the test system is F+ donor cells. In words: microbe, parasite or virus in culture. The following applies: for EC50: Escherichia coli, 100 min, vs. F+ donor cells, read-out: 100 minute EC50; for Selectivities by EC50, Transconj.: listed as vs. F+ donor cells relative to transconjugants. The source says: (§1) A 96-well fluorescence-based assay using oxygen biosensor plates (Becton Dickinson, Franklin Lakes, N.J., U.S.A.) was employed to monitor bacterial cell survival. FIG. 7 schematically illustrates the assay mechanism of action. […] In the absence of viable bacteria, however, no fluorescence emission is detected because the fluorophore is quenched by free oxygen. The assay can further be utilized to measure conjugative DNA transfer.
(§2) Relaxase-dependent cell survival was examined by placing cultures of F+/TraI+ E. coli cells (with antibiotic resistance, e.g., Ab^r1, on a non-conjugative plasmid) within wells and exposing them to putative inhibitory compounds. […] Negative controls for this assay can be F− (Ab^r2) cells and F+ cells (Ab^r1) containing either no F plasmid relaxase (TraI) gene, or a TraI harboring catalytic tyrosine to phenylalanine mutations; in both cases, these control cells should be resistant to relaxase-dependent cell toxicity. […] Fluorescence can be measured using a PHERASTAR™ fluorescence plate reader (BMG LABTECH, Offenburg, Germany) over 8 hours time.

The subject of assay [2] is F− recipient cells. The assay is described as follows: microbe, parasite or virus in culture. The note with it: for EC50: Escherichia coli, 100 min, vs. F− recipient cells, read-out: 100 minute EC50; for Selectivities by EC50, Donors: listed as vs. F− recipient cells relative to donors; for Selectivities by EC50, Transconj.: listed as vs. F− recipient cells relative to transconjugants.
From the text: as §1, §2

The subject of assay [3] is transconjugants. The assay is described as follows: microbe, parasite or virus in culture. The following applies: for EC50: Escherichia coli, 100 min, read-out: 100 minute EC50, vs. transconjugants; for Selectivities by EC50, Donors: listed as vs. transconjugants relative to donors.
From the text: as §1, §2

Assay [4] concerns F+ or F− cells. The assay is described as follows: 24 hr. MIC bounds (turbid/clear wells). The note with it: Escherichia coli, 8x serial dilutions, bounds identical for F+ or F− cells.
Setting [5] is: first EC50 block, mass concentration.
Where [6] appears, read: second block, mass concentration.

By EC50 is commonly meant the concentration at which the effect is half-maximal. What is called MIC is the lowest concentration found to suppress growth. In the case of `O=P(O)(O)NP(=O)(O)O` [pNp, imidodiphosphate], the concentration giving a half-maximal response (EC50) in assay [1] (setting [5]) was 0.063 µg/mL; in assay [1] (first EC50 block), 0.000356 mM; in assay [1] (setting [6]), 8000 µg/mL; in assay [1] (second block), 43 mM; in assay [2] (setting [5]) it was 105 µg/mL; in assay [2] (first EC50 block), 0.593 ± 0.0035 mM. The EC50 in assay [2] (setting [6]) was 6000 µg/mL; in assay [2] (second block) it was 35 mM; in assay [3] (first EC50 block) it was 0.005 mM; in assay [3] (setting [5]) it was 0.936 µg/mL; in assay [3] (second block), 9 mM; in assay [3] (setting [6]), 2000 µg/mL. Further, the “Selectivities by EC50, Transconj.” value in assay [1] (first EC50 block) was 6.7E−02; in assay [1] (second block), 4.9E+00; in assay [2] (first EC50 block), 1.1E+02; in assay [2] (second block), 4.0E−00. For the same molecule, the “Selectivities by EC50, Donors” value in assay [2] (first EC50 block) worked out at 1.7E+03; in assay [2] (second block), 8.0E−01; in assay [3] (first EC50 block) it was 1.5E+01; in assay [3] (second block), 2.0E−01. For the same molecule, the minimal inhibitory concentration (MIC) in assay [4] (clear wells after 24 hr. incubation, read-out: 24 hr. MIC bounds, upper) came out at 100 mM (≈ 17700 µg/mL); in assay [4] (turbid wells after 24 hr. incubation, read-out: 24 hr. MIC bounds, lower) it was 12.5 mM (≈ 2210 µg/mL).
